Results: patent US9127079B2, “Inhibitors of phosphatase and tensin homolog (PTEN) conjugates” (THE UNIVERSITY OF BRITISH COLUMBIA, priority 2009, dated 2015)

Key:
[1] = Infarct volume by MRI after cerebral ischemia (MCA/CCA ligation); type: in vivo, rat; conditions: for infarct volume assessed by MRI: seven days after cerebral ischemia; for Mean (infarct volume): given 6 hours after ischemia onset, n=8
Procedure: Adult male Sprague-Dawley rats (weight 200 g) were used in this study. All surgical procedures were performed using sterile/aseptic techniques in accordance with Institutional guidelines. Rats were anesthetized with chloral hydrate (0.4 g/kg IP) and subjected to cerebral ischemia. Ligation of the right middle cerebral artery (MCA) and bilateral common carotids arteries (CCAs) was performed by methods described previously (Shyu et al. 2005). The CCAs were clamped with non-traumatic arterial clips. The right MCA was ligated with a 10-0 nylone suture. After 90 min of ischemia, the suture on the MCA and the arterial clips on the CCAs were removed to allow reperfusion. Core body temperature was monitored with a thermistor probe (Hewlett-Packard™ Model 21090A probe, Hewlett-Packard Company™, Andover, Mass.), and maintained at 37° C. with a heating pad during anesthesia. After recovery from anesthesia, rat body temperature was maintained at 37° C. with a heat lamp. […]
MRI was performed on rats under anesthesia in an imaging system (R4, GE™) at 3.0 T. Brains were scanned in 6 to 8 coronal image slices, each 2 mm thick without any gaps. T2-weighted imaging (T2WI) pulse sequences were obtained with the use of a spin-echo technique (repetition time, 4000 ms; echo time, 105 ms) and were captured sequentially for each animal at day 7 after cerebral ischemia. To measure the infarction area in the right cortex, we subtracted the noninfarcted area in the right cortex from the total cortical area of the left hemisphere (Shyu et al. 2004). The area of infarct was drawn manually from slice to slice, and the volume was then calculated by internal volume analysis software (Voxtool™, General Electric™).

[2] = Transgenic G37R SOD1 mouse model of ALS: survival and behavioural outcomes; type: in vivo; conditions: IP 16 mg/kg 3 times a week
Procedure: Transgenic mice expressing G37R SOD1 (G37R) at almost 8 months of age and having no apparent pathologic symptoms were double blinded with a designated code and divided into 3 groups of 12 mice (6 male and 6 female) maintained on a pure C57BL6 background in the local animal facility under a 12 h light cycle with food and drinking water ad libitum. All mice were genotyped by PCR. The use of animals as described in this study was carried out according to The Guide to the Care and Use of Experimental Animals of the Canadian Council on Animal Care. […].
Body weight and neurological scores such as HLR scores and Rota Rod functions were regularly monitored and recorded. End points and survival dates were determined when mice were not able to stand up within 20 s when moved on the side. Disabled mice were anesthetized and sacrificed according to the guidelines of The University of British Columbia for the care and use of laboratory animals. All collected data were subjected to statistical analysis using Kaplan-Meier plots and Log-rank tests.

KEIVSRNKRRYQED-YGRKKRRQRRR (KEIVSRNKRRYQEDYGRKKRRQRRR; PTEN K13 interference peptide conjugated to TAT protein transduction domain) [Peptide-K13]
decrease in infarct volume as compared to the control ([1]; 1.0 mg/kg intravenous): greater than 50%
decrease in infarct volume as compared to the control ([1]; 10 mg/kg intravenous): greater than 50%
infarct volume assessed by MRI ([1]; i.v. 8.4 mg/kg given 2 hours after ischemia onset): significantly reduced
infarct volume assessed by MRI ([1]; i.v. 8.4 mg/kg given 6 hours after ischemia onset): significantly reduced
Mean (infarct volume) ([1]; intravenous 0.1 mg/kg): 160.900
Mean (infarct volume) ([1]; intravenous 1.0 mg/kg): 72.850
Mean (infarct volume) ([1]; intravenous 10 mg/kg): 63.700
behavioural outcomes ([2]; female ALS mice): improves behavioural outcomes
survival ([2]; female ALS mice): prolongs the survival
survival ([2]; male ALS mice): no statistically significant improvement
